Results as given in patent publication US9802901B2, “Antibacterial 2H-indazole derivatives” (priority 2013, dated 2017).
In brackets after ≈: the same amount, converted by molar mass.

Assays:
Assay in all cases: Bacterial growth minimal inhibitory concentration (broth microdilution, CLSI M7-A7)
[1] = system: Acinetobacter baumannii T6474; format: cell-based; conditions: cation-adjusted Mueller-Hinton Broth, microdilution, multiply-resistant (quinolone-resistant) strain; for MIC: Acinetobacter baumannii, T6474, read-out: MIC for A. Baumannii T6474
Method: (§1) Minimal Inhibitory Concentrations (MICs; mg/L) were determined in cation-adjusted Mueller-Hinton Broth by a microdilution method following the description given in “Methods for Dilution Antimicrobial Susceptibility Tests for Bacteria that Grow Aerobically”, Approved standard, 7th ed., Clinical and Laboratory Standards Institute (CLSI) Document M7-A7, Wayne, Pa., USA (2006).
(§2) All Example compounds, except the compound of Example 62, were tested against several Gram-positive and Gram-negative bacteria. […] K. pneumoniae A-651 and Acinetobacter baumannii T6474 are multiply-resistant strains (in particular quinolone-resistant), while E. coli ATCC25922 and P. aeruginosa ATCC27853 are quinolone-sensitive strains.

E. coli ATCC25922 = format: cell-based, Escherichia coli; conditions: cation-adjusted Mueller-Hinton Broth, microdilution, quinolone-sensitive strain; for MIC: Escherichia coli, ATCC25922, read-out: MIC for E. coli ATCC25922
Method: as §1, §2

P. aeruginosa ATCC27853 = format: cell-based, Pseudomonas aeruginosa; conditions: cation-adjusted Mueller-Hinton Broth, microdilution, quinolone-sensitive strain; for MIC: Pseudomonas aeruginosa, ATCC27853, read-out: MIC for P. aeruginosa ATCC27853
Method: as §1, §2

K. pneumoniae A-651 = format: cell-based, Klebsiella pneumoniae; conditions: cation-adjusted Mueller-Hinton Broth, microdilution, multiply-resistant (quinolone-resistant) strain; for MIC: Klebsiella pneumoniae, A651, read-out: MIC for K. Pneumoniae A-651
Method: as §1, §2

| Molecule | MIC [1] [µg/mL] | MIC (E. coli ATCC25922) [µg/mL] | MIC (P. aeruginosa ATCC27853) [µg/mL] | MIC (K. pneumoniae A-651) [µg/mL] | MIC for A. Baumannii T6474 [1] [µg/mL] | MIC for E. coli ATCC25922 (E. coli ATCC25922) [µg/mL] | MIC for P. aeruginosa ATCC27853 (P. aeruginosa ATCC27853) [µg/mL] | MIC for K. Pneumoniae A-651 (K. pneumoniae A-651) [µg/mL] |
| --- | --- | --- | --- | --- | --- | --- | --- | --- |
| CN(C)CC#CC#Cc1ccc2nn(CC[C@](C)(C(=O)NO)S(C)(=O)=O)cc2c1 [Example 75, (R)-4-(5-(5-(dimethylamino)penta-1,3-diyn-1-yl)-2H-indazol-2-yl)-N-hydroxy-2-methyl-2-(methylsulfonyl)butanamide] | > 32 | 0.125 (≈ 0.3 µM) | 0.5 (≈ 1.2 µM) | 0.15 (≈ 0.36 µM) |  |  |  |  |
| C[C@@](CCn1cc2cc(C#CC#CC3CCN(C(=O)CN)CC3)ccc2n1)(C(=O)NO)S(C)(=O)=O.O=CO [Example 83, (R)-4-(5-((1-glycylpiperidin-4-yl)buta-1,3-diyn-1-yl)-2H-indazol-2-yl)-N-hydroxy-2-methyl-2-(methylsulfonyl)butanamide formate] | 32 | 2 | 4 | 8 |  |  |  |  |
| COc1ccc(-c2ccc3nn(CC[C@](C)(C(=O)NO)S(C)(=O)=O)cc3c2)cc1 [Example 2, (R)—N-hydroxy-2-methylsulfonyl-4-[5-(4-methoxy-phenyl)-indazol-2-yl]-2-methyl-butanamide] | 1 (≈ 2.4 µM) | 0.125 (≈ 0.299 µM) | 4 (≈ 9.58 µM) | 0.5 (≈ 1.2 µM) |  |  |  |  |
| C[C@@](CCn1cc2cc(C#Cc3ccc(C4(N)CC4)cc3)ccc2n1)(C(=O)NO)S(C)(=O)=O.O=CO [Example 79, (R)-4-(5-((4-(1-aminocyclopropyl)phenyl)ethynyl)-2H-indazol-2-yl)-N-hydroxy-2-methyl-2-(methylsulfonyl)butanamide formate] | 2 | 0.125 | 1 | 0.25 |  |  |  |  |
| C[C@@](CCn1cc2cc(C#CC#CC3CCC(NC(=O)CN)C3)ccc2n1)(C(=O)NO)S(C)(=O)=O (stereo partly drawn) [Example 70, (R)-4-(5-((3-(2-aminoacetamido)cyclopentyl)buta-1,3-diyn-1-yl)-2H-indazol-2-yl)-N-hydroxy-2-methyl-2-(methylsulfonyl)butanamide] | > 32 | 1 (≈ 2 µM) | 2 (≈ 4 µM) | 1 (≈ 2 µM) |  |  |  |  |
| C[C@@](CCn1cc2cc(C#CC#CC3CCN(C(=O)CO)CC3)ccc2n1)(C(=O)NO)S(C)(=O)=O [Example 78] |  |  |  |  | 4 | 0.5 | 1 | 2 |
| C[C@@](CCn1cc2cc(C#CC#CC34CC(CO)(C3)C4)ccc2n1)(C(=O)NO)S(C)(=O)=O [Example 57, (R)—N-hydroxy-4-(5-((3-(hydroxymethyl)bicyclo[1.1.1]pentan-1-yl)buta-1,3-diyn-1-yl)-2H-indazol-2-yl)-2-methyl-2-(methylsulfonyl)butanamide] | 8 (≈ 17.6 µM) | 0.125 (≈ 0.274 µM) | 0.5 (≈ 1.1 µM) | 0.25 (≈ 0.549 µM) |  |  |  |  |
| C[C@@](CCn1cc2cc(C#CC#C[C@@]3(F)C[C@@H]3CO)ccc2n1)(C(=O)NO)S(C)(=O)=O [Example 74, (R)-4-(5-(((1R,2R)-1-fluoro-2-(hydroxymethyl)cyclopropyl)buta-1,3-diyn-1-yl)-2H-indazol-2-yl)-N-hydroxy-2-methyl-2-(methylsulfonyl)butanamide] | 4 (≈ 8.94 µM) | 0.125 (≈ 0.279 µM) | 0.5 (≈ 1.12 µM) | 0.125 (≈ 0.279 µM) |  |  |  |  |
| (R)-4-(5-(5-amino-5-methylhexa-1,3-diyn-1-yl)-2H-indazol-2-yl)-N-hydroxy-2-methyl-2-(methylsulfonyl)butanamide [Example 24] |  |  |  |  | >32 | 0.5 | 0.5 | 1 |
| C[C@@](CCn1cc2cc(C#CC#CC3(O)COC3)c(F)cc2n1)(C(=O)NO)S(C)(=O)=O [Example 31, (R)-4-{6-fluoro-5-[4-(3-hydroxy-oxetan-3-yl)-buta-1,3-diynyl]-indazol-2-yl}-N-hydroxy-2-methylsulfonyl-2-methyl-butanamide] | > 32 | 1 (≈ 2.22 µM) | 2 (≈ 4.45 µM) | 1 (≈ 2.22 µM) |  |  |  |  |
| C[C@@](CCn1cc2c(F)c(C#Cc3ccc(CO)cc3)ccc2n1)(C(=O)NO)S(C)(=O)=O.O=C(O)C(F)(F)F [Example 23, (R)-4-[4-fluoro-5-(4-hydroxymethyl-phenylethynyl)-indazol-2-yl]-N-hydroxy-2-methylsulfonyl-2-methyl-butanamide trifluoro-acetic acid salt] | 1 | 0.25 | 4 | 0.25 |  |  |  |  |
| C[C@@](CCn1cc2cc(-c3ccc(OC(F)(F)F)cc3)ccc2n1)(C(=O)NO)S(C)(=O)=O [Example 8, (R)—N-hydroxy-2-methylsulfonyl-2-methyl-4-[5-(4-trifluoromethoxy-phenyl)-indazol-2-yl]-butanamide] | 0.125 (≈ 0.265 µM) | 0.25 (≈ 0.53 µM) | 4 (≈ 8.48 µM) | 0.5 (≈ 1.06 µM) |  |  |  |  |
| C[C@@](CCn1cc2cc(C#CC#CC3CCNCC3)ccc2n1)(C(=O)NO)S(C)(=O)=O [Example 76, (R)—N-hydroxy-2-methyl-2-(methylsulfonyl)-4-(5-(piperidin-4-ylbuta-1,3-diyn-1-yl)-2H-indazol-2-yl)butanamide] | > 32 | 8 (≈ 18.1 µM) | 2 (≈ 4.52 µM) | 32 (≈ 72.3 µM) |  |  |  |  |
| C[C@@](CCn1cc2cc(C#Cc3ccc(CO)cc3)ccc2n1)(C(=O)NO)S(C)(=O)=O [Example 21, (R)—N-hydroxy-4-(5-((4-(hydroxymethyl)phenyl)ethynyl)-2H-indazol-2-yl)-2-methyl-2-(methylsulfonyl)butanamide] | 0.5 (≈ 1.13 µM) | 0.125 (≈ 0.283 µM) | 1 (≈ 2.26 µM) | 0.25 (≈ 0.566 µM) |  |  |  |  |
| C[C@@](CCn1cc2cc(C#CC#C[C@H]3C[C@]3(F)CO)ccc2n1)(C(=O)NO)S(C)(=O)=O [Example 77, (R)-4-(5-(((1R,2R)-2-fluoro-2-(hydroxymethyl)cyclopropyl)buta-1,3-diyn-1-yl)-2H-indazol-2-yl)-N-hydroxy-2-methyl-2-(methylsulfonyl)butanamide] | 4 (≈ 8.94 µM) | 0.125 (≈ 0.279 µM) | 0.25 (≈ 0.559 µM) | 0.25 (≈ 0.559 µM) |  |  |  |  |
| C[C@@](CCn1cc2cc(C#Cc3ccc(C4(CO)CC4)cc3)ccc2n1)(C(=O)NO)S(C)(=O)=O [Example 16, (R)—N-hydroxy-4-(5-((4-(1-(hydroxymethyl)cyclopropyl)phenyl)ethynyl)-2H-indazol-2-yl)-2-methyl-2-(methylsulfonyl)butanamide] | 0.5 (≈ 1.04 µM) | 0.125 (≈ 0.26 µM) | 1 (≈ 2.08 µM) | 0.125 (≈ 0.26 µM) |  |  |  |  |
| CC(C)(O)c1ccc(C#Cc2ccc3nn(CC[C@](C)(C(=O)NO)S(C)(=O)=O)cc3c2)cc1 [Example 27, (R)—N-hydroxy-4-(5-((4-(2-hydroxypropan-2-yl)phenyl)ethynyl)-2H-indazol-2-yl)-2-methyl-2-(methylsulfonyl)butanamide] | 0.25 (≈ 0.532 µM) | 0.063 (≈ 0.134 µM) | 0.5 (≈ 1.06 µM) | 0.125 (≈ 0.266 µM) |  |  |  |  |
| CSc1ccc(-c2ccc3nn(CC[C@](C)(C(=O)NO)S(C)(=O)=O)cc3c2)c(F)c1 [Example 9, (R)-4-[5-(2-fluoro-4-methylsulfanyl-phenyl)-indazol-2-yl]-N-hydroxy-2-methylsulfonyl-2-methyl-butanamide] | 0.25 (≈ 0.554 µM) | 0.063 (≈ 0.14 µM) | 2 (≈ 4.43 µM) | 0.063 (≈ 0.14 µM) |  |  |  |  |
| C[C@@](CCn1cc2cc(/C=C/c3ccccc3)ccc2n1)(C(=O)NO)S(C)(=O)=O [Example 17, (R)—N-hydroxy-2-methylsulfonyl-2-methyl-4-[5-((E)-styryl)-indazol-2-yl]-butanamide] | 1 (≈ 2.42 µM) | 0.063 (≈ 0.152 µM) | 16 (≈ 38.7 µM) | 0.063 (≈ 0.152 µM) |  |  |  |  |
